According to patent US12486250B2, “Muscarinic receptor 4 antagonists and methods of use” (Neurocrine Biosciences, Inc., priority 2019, dated 2025):
Where two headings read alike, the source gives them in different places.

Assays:
[1] = molecular target: T1, human M4 receptor (Homo sapiens, UniProt P08173); experiment: Radioligand ([3H]N-methylscopolamine) binding assay, CHO cell membranes; conditions: 1.5 nM tritiated N-methylscopolamine, 90 minutes at 37° C.; read-out: Binding affinity (Ki) M4
T1 construct: expressed in transfected cells; host or cells: CHO cells
T1 sequence (P08173 1-479): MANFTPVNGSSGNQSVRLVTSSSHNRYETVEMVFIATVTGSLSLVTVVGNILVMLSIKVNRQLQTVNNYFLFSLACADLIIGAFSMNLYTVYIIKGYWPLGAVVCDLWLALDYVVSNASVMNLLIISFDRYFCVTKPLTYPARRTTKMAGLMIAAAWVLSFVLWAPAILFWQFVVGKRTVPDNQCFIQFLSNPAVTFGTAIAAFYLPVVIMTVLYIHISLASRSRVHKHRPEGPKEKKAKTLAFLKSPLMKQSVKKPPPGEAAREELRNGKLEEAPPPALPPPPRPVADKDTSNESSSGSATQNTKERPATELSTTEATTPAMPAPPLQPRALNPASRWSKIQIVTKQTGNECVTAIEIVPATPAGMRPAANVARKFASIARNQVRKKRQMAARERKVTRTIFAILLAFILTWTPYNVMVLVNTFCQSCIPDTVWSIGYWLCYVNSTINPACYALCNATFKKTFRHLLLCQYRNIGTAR
Procedure: Binding affinity (Ki) of compounds was measured by inhibition of radioligand binding to membranes from CHO cells expressing human M1, M2, M3, M4 and M5 receptors. Membranes were prepared by nitrogen cavitation and differential centrifugation as previously described (Hoare et al., Mol. Pharmacol. 2003 March; 63(3): 751-65). The radioligand employed was tritiated N-methylscopolamine, used at a concentration of 1.5 nM. A dose-response of twelve concentrations of compound was used, ranging from […]. The assay buffer was 50 mM HEPES, 100 mM NaCl, 5 mM MgCl2, 1 mM ethylenediaminetetraacetic acid, pH-adjusted to pH 7.4. Membranes, radioligand and compound were incubated together for 90 minutes at 37° C., in a total volume of 150 μL in a 96-well plate. Receptor-bound radioligand was then collected by harvesting the assay over glass fiber filters pretreated with polyethylenimine to trap the cell membranes, using rapid vacuum filtration. Harvesting and radioactivity counting was conducted as previously described (see, e.g., Hoare et al., Mol. Pharmacol. 2003 63(3):751-65); Erratum at Mol. Pharmacol. 2005 July; 68(1): 260).

[2] = Rat pharmacokinetics (IV and PO); assay type: in vivo, male Sprague-Dawley rats; conditions: male, Sprague-Dawley, plasma; for Vd: read-out: Vdss; for half-life: read-out: T½ (converted); for Tmax: read-out: Tmax range
Procedure: The pharmacokinetics of Compounds 1, 2, 3A, and 4A were assessed in male Sprague-Dawley rats following either intravenously (IV) or orally (PO) dosing. Sin-life portions of the studies were either conducted internally at Neurocrine Biosciences or contracted to Charles River Laboratories or Agilux Laboratories. All studies were performed according to good scientific principles and internal standard operating procedures (SOPs). However, the studies were exploratory in nature and were not conducted in accordance with the United States Food and Drug Administration (FDA) Good Laboratory Guidance (GLP) regulations.
Adult (8-9 weeks old) male rats were acclimated prior to dose administration. For dosing, rats were either dosed intravenously through the femoral vein or orally via oral gavage. Food and water were provided ad libitum during the acclimation period. The rats were maintained in a controlled temperature and humidity environment with a photoperiod with a 12 hour light to dark cycle. Rats were either dosed fed or fasted. In studies where the rats were fasted, rats were allowed access to food four hours post-dose.
For the IV bolus dose, compound was administered over a period of approximately 30 seconds using a 1 mL syringe via the femoral vein catheter. The IV dose was followed with a bolus of sterile saline (approximately 100 μL). For IV infusion doses, compound was administered using an IV infusion pump to deliver the total dose volume over 1 hour. Rats were connected to the infusion pump through catheter tubing that was connected to the femoral catheter prior to the infusion start. For the oral dose, compound was administered using flexible, polypropylene-shafted, silicone bulb shaped-tipped gavage (Instech Solomon plastic feeding tubes, 18 gauge×75 mm). Animals were periodically observed for eight hours following the dose administration for potential test article related effects.
Serial blood samples from IV and PO dosed rats (N=3 or 4) were collected out to 24 hours post-dose. For the time points up to 8 hours post dose, approximately 200 μL of whole blood was drawn from the jugular catheter or from the tail vein with a 1-mL syringe. The whole blood was transferred to a 600 μL Sarstedt collection tube that contained 1.2-2 mg EDTA-K3/mL of anticoagulant, gently mixed, and then centrifuged for 1.0 min at 13,000 rpm. Approximately 100 μL of plasma was aliquoted. Blood for the terminal time points at 24 hours were collected by […] with a syringe containing 1.6 mg EDTA-K3/mL of anticoagulant, transferred to an Eppendorf and immediately centrifuged for 1.0 min at 13,000 rpm. Approximately 300 μL of plasma was aliquoted. The aliquoted plasma samples were stored at −80° C. until analysis.
For IV and PO dose groups, descriptive pharmacokinetics were derived and evaluated based on the plasma concentrations from each individual rat. Pharmacokinetic parameters were determined using non-compartmental analysis (NCA) of plasma concentration-time profiles in Phoenix WinNonlin pharmacokinetic modeling software Professional (version 6.3; Pharsight Corporation). Nominal time was used for all timepoints unless otherwise indicated. Descriptive statistics (means, standard deviations and coefficient of variation) were also generated. Mean pharmacokinetic summaries of Compounds 1-4 following intravenous and PO dosing in Sprague Dawley rats were summarized in Tables 15 and 16.
Plasma samples of compounds 1, 2, 3A, and 4A were prepared by protein precipitation. Calibration standards and quality control plasma samples were prepared from the same lot of reference standard to quantify the concentration of the study samples. […]

[3] = IV infusion (1 hr), 2 mg/kg, HCl salt
[4] = iv, 1 mg/kg, IV bolus, 1 mg/kg, HCl salt
[5] = iv, 1 mg/kg, IV bolus, HCl salt
[6] = iv, 2 mg/kg, IV infusion (1 hr), 2 mg/kg, HCl salt
[7] = iv, 2 mg/kg, IV infusion (1 hr), HCl salt
[8] = po, 10 mg/kg, PO 10 mg/kg, 1% Tween-80 in water (suspension)
[9] = po, 10 mg/kg, PO 10 mg/kg, 10% PEG-400 in 0.5% MC (suspension)
[10] = po, 10 mg/kg, PO 10 mg/kg, 10% PEG-400 in 0.5% MC in water (solution)
[11] = PO 10 mg/kg, 10% PEG-400 in 0.5% MC in water (solution)
[12] = po, 10 mg/kg, PO 10 mg/kg, 5% Tween-80 in 0.5% (w/v) MC in water (suspension)
[13] = iv, 2.5 mg/kg, IV bolus, HCl salt
[14] = po, 10 mg/kg, PO 10 mg/kg, 30% PG, 20% PEG-400, 0.5% MC in water (solution)

Ki [1] | clearance ([2]; IV bolus, 1 mg/kg, HCl salt) | Vd ([2]; IV bolus, 1 mg/kg, HCl salt) | clearance [2, 3] | Vd [2, 3] | half-life [2, 4] | AUC(0-inf) [2, 5] | AUC(0-t) [2, 5] | half-life [2, 6] | AUC(0-inf) [2, 7] | AUC(0-t) [2, 7] | AUC(0-t) [2, 10] | Cmax [2, 10] | Tmax [2, 10] | bioavailability [2, 11] | AUC(0-inf) [2, 10] | half-life [2, 10] | AUC(0-inf) [2, 12] | AUC(0-t) [2, 12] | Cmax [2, 12] | SMILES | other results
1.8 nM | 40.4 mL/min/kg | 28.2 L/kg | 15.8 mL/min/kg | 12.1 L/kg | 9.1 h | 415 ng·h/mL | 357 ng·h/mL | 10.2 h | 1680 ng·h/mL | 1780 ng·h/mL | 3150 ng·h/mL | 264 ng/mL | 0.5 to 1 h | – | – | – | – | – | – | C[C@@H]1CN(c2cnc(C(F)(F)F)cn2)C[C@H](C)N1C(=O)OCCC1CCN(Cc2ccccc2)CC1 [Compound 1, 2-(1-benzylpiperidin-4-yl)ethyl (2R,6S)-2,6-dimethyl-4-[5-(trifluoromethyl)pyrazin-2-yl]piperazine-1-carboxylate] | bioavailability ([2]; PO 10 mg/kg, 10% PEG-400 in 0.5% MC (suspension)): 89.1%; AUC(0-t) [2, 8]: 3950 ng·h/mL; Cmax [2, 8]: 280 ng/mL; Tmax [2, 8]: 1 h; AUC(0-t) [2, 9]: 3180 ng·h/mL; Cmax [2, 9]: 164 ng/mL; Tmax [2, 9]: 2 to 7.5 h
4 nM | – | – | 44.9 mL/min/kg | 36 L/kg | – | – | – | 11 h | 747 ng·h/mL | 613 ng·h/mL | 2190 ng·h/mL | 130 ng/mL | 2 to 7.5 h | 81.4% | 3040 ng·h/mL | 12.9 h | – | – | – | C[C@@H]1CN(c2cnc(C(F)(F)F)cn2)C[C@@H](C)N1C(=O)OCCC1CCN(Cc2ccccc2)CC1 [Compound 2, 2-(1-benzylpiperidin-4-yl)ethyl (2R,6R)-2,6-dimethyl-4-[5-(trifluoromethyl)pyrazin-2-yl]piperazine-1-carboxylate] | –
5 nM | 56.6 mL/min/kg | 16.1 L/kg | – | – | 5.01 h | 204 ng·h/mL | 288 ng·h/mL | – | – | – | 1700 ng·h/mL | 182 ng/mL | 0.5 to 2 h | 59.2% | 1740 ng·h/mL | 4.2 h | 3500 ng·h/mL | 2530 ng·h/mL | 231 ng/mL | C[C@@H]1CN(c2cnc(C(F)(F)F)cn2)C[C@@H](C)N1C(=O)NCCC1CCN(Cc2ccccc2)CC1 [Compound 4A] | Tmax [2, 12]: 1 to 8 h; half-life [2, 12]: 7.09 h
3 nM | – | – | – | – | – | – | – | – | – | – | – | – | – | – | – | – | 1150 ng·h/mL | 1500 ng·h/mL | 205 ng/mL | C[C@@H]1CN(c2ncc(C#N)cn2)C[C@H](C)N1C(=O)NCCC1CCN(Cc2ccccc2)CC1 [Compound 3A] | clearance ([2]; IV bolus, 2.5 mg/kg, HCl salt): 47.5 mL/min/kg; Vd ([2]; IV bolus, 2.5 mg/kg, HCl salt): 4.37 L/kg; bioavailability ([2]; PO 10 mg/kg, 30% PG, 20% PEG-400, 0.5% MC in water (solution)): 43.7%; half-life ([2]; iv, 2.5 mg/kg, IV bolus, 2.5 mg/kg, HCl salt): 1.95 h; AUC(0-inf) [2, 13]: 882 ng·h/mL; AUC(0-t) [2, 13]: 854 ng·h/mL; Tmax [2, 12]: 0.5 to 4 h; half-life [2, 12]: 3.21 h; AUC(0-inf) [2, 14]: 1540 ng·h/mL; AUC(0-t) [2, 14]: 1400 ng·h/mL; Cmax [2, 14]: 247 ng/mL; Tmax [2, 14]: 0.5 to 2 h; half-life [2, 14]: 3.65 h
